Results as given in US20060120962A1, “Cardiac safe, rapid medication delivery” (priority 2004, published 2006).
Where “and” joins values, the source holds several entries; their conditions need not be identical. Identical values can stand only once. Like-named read-outs stand apart in the source and are kept apart here.

Legend:
[1] = Clinical observations and body weights after prochlorperazine administration in dogs; assay type: in vivo; conditions: dog
[2] = humans; reported; cited from earlier work
[3] = in vivo; conditions: female, mongrel, dog, 7 mg; for AUC(0-t): AUC0-10 min; for bioavailability: F, based on venous AUCinf
Experimental: The objective of this study was to determine the concentration of prochlorperazine in dog plasma processed from whole blood taken from both the left ventricle and venous circulation immediately following administration of prochlorperazine aerosol to the animal by way of the thermal aerosol generation process described herein, during a single deep inhalation.
This study consisted of four young adult, female, mongrel dogs. The animals were treated with the test article, prochlorperazine (PCZ), in three separate surgical/dosing sessions. In sessions 1 and 3, the test article was administered intravenously (IV), either via a 120-second infusion (Session 1) or as a five-second bolus (Session 3). In session 2, the test article was administered using a thermal aerosol generation process, during a single deep inhalation. Following treatment in each surgical/dosing session, blood samples were collected from the left ventricle and from a peripheral vein for bioanalysis. Left ventricular and venous plasma samples were obtained prior to drug administration. In addition, left ventricular plasma samples were obtained every five seconds during the first 30 seconds following drug administration, as well as frequently thereafter, with the last left ventricular sample collected 10 minutes following drug administration. Venous plasma samples were obtained from 15 seconds to 24 hours following drug administration. Clinical observations and body weights were recorded for all animals at specified time points.
The animals were treated in three separate surgical/dosing sessions. For each session, the animals were appropriately anesthetized prior to administration of the test article. Each surgical/dosing session was separated by a washout period of approximately 48 hours from the time of the previous treatment administration.
Session 1: While the animals were anesthetized, the test article (1.4 mL of 5 mg/mL prochloperazine edisylate injection) was administered as a 120-second intravenous (IV) manual infusion via a saphenous vein. Blood sampling commenced at the time of initiation of infusion (t=0).
Session 2: While the animals were anesthetized, an aerosol generation and administration system was connected in-line to an endotracheal tube to allow for delivery of the aerosol test article (prochlorperazine coated on a chemical, single dose heat package). The aerosol resulting from actuation of the prochlorperazine by the aerosol generation and administration system was administered during a single deep inhalation. Blood sampling commenced at the time of initiation of the deep inhalation (t=0).
Session 3: While the animals were anesthetized, the test article (1.4 mL of 5 mg/mL prochloperazine edisylate injection) was administered as a five-second IV bolus via a saphenous vein. Blood sampling commenced at the time of initiation of the bolus (t=0).
Each animal was premedicated with atropine sulfate (0.02 mg/kg, intramuscularly) and acepromazine (0.2 mg/kg, IM, to a maximum dose of 3 mg) prior to induction of anesthesia. At least 10 minutes later, the animal was anesthetized with Propofol(4-8 mg/kg, intravenously). The animal was then intubated and maintained in anesthesia with isoflurane inhalant anesthetic, delivered through a volume-regulated ventilator. An intravenous catheter was placed in a peripheral vessel for administration of lactated Ringer's solution during the procedure at a rate of approximately 5 mL/kg/hr.
A midline incision was made in the neck and one of the carotid arteries was exposed. The artery was mobilized a distance of about 5 cm and two Vessel-Loops® were placed around it, proximally and distally.

[4] = Clinical observations and body weights after alprazolam administration in dogs; assay type: in vivo; conditions: dog
Experimental: (§1) This study consisted of five young adult, female, mongrel dogs. Four animals per session were treated with the test article, alprazolam, in two separate surgical/dosing sessions. In Session 1 the test article was administered intravenously (IV) as a 5-second bolus. […] The animals were dosed at a level of 0.7 mg of alprazolam in both dosing sessions.

[5] = Pharmacokinetics of aerosolized alprazolam in dog (left ventricular and venous plasma) vs IV bolus; assay type: in vivo; conditions: for AUC(0-t) / bioavailability / Cmax / Tmax / AUC / half-life: female, mongrel, 0.7 mg; for AUC(0-t): venous plasma; for Tmax: median
Experimental: as §1
Four animals per session were treated with the test article, alprazolam, in two separate surgical/dosing sessions. The animals were dosed at a level of 0.7 mg of alprazolam in both dosing sessions.
Anesthesia was performed substantially as described in Example 1.
Whole blood samples were centrifuged. […] All plasma samples were stored until analyzed. […] Plasma samples were mixed with spiking solutions of alprazolam, α-hydroxyalprazolam, 4-hydroxyalprazolam and an internal standard (alprazolam-d5). […] Drug or metabolite concentrations were calculated by comparing (drug or metabolite)/internal standard ratios to standard curves prepared in dog plasma.
Individual plasma concentration-time data from four animals, two sampling sites, and two dose routes were analyzed by noncompartmental pharmacokinetic methods via WinNonlin using nominal time points. Areas were calculated using the linear trapezoidal rule.

[6] = left ventricular plasma, inhaled or intranasal, dog left ventricular plasma, aerosol inhalation
[7] = left ventricular plasma, iv, dog left ventricular plasma, 2-min IV infusion
[8] = left ventricular plasma, iv, dog left ventricular plasma, IV bolus
[9] = venous plasma, iv, dog venous plasma, 2-min IV infusion
[10] = venous plasma, iv, dog venous plasma, IV bolus
[11] = dog left ventricular plasma, IV bolus
[12] = dog venous plasma, 7 mg, 2-min IV infusion
[13] = dog venous plasma, 7 mg, IV bolus
[14] = dog venous plasma, 7 mg, aerosol inhalation
[15] = inhaled or intranasal, dog left ventricular plasma, aerosol inhalation
[16] = inhaled or intranasal, dog venous plasma, aerosol inhalation

For `CN1CCN(CCCN2c3ccccc3Sc3ccc(Cl)cc32)CC1` [PCZ, prochlorperazine], the “adverse effects by clinical observations” value ([1]; 7 mg IV infusion, aerosol, IV bolus sessions) is given as “no adverse effects”, the “body weights between treatment sessions” value ([1]; all animals) is given as “maintained” and the oral bioavailability [2] is given as 12.5%. For the same molecule, the Tmax ([3]; left ventricular and venous plasma, iv, dog left ventricular and venous plasma, 2-minute IV infusion) was 1.25 to 3 min, the AUC(0-t) [3, 6] was 89.1 ± 13.7 ng·h/mL and the Cmax [3, 6] was 3260 ± 975 ng/mL. The Tmax [3, 6] was 0.33 min, the AUC(0-t) [3, 7] was 88.5 ± 25.7 ng·h/mL and the AUC(0-t) [3, 8] was 98.3 ± 15 ng·h/mL. For the same molecule, the Cmax [3, 7] was 1360 ± 396 ng/mL, the Cmax [3, 8] was 3480 ± 767 ng/mL and the Tmax [3, 7] was 1.9 min. For the same molecule, the Tmax [3, 8] was 0.5 min, the Cmax ([3]; venous plasma, inhaled or intranasal, dog venous plasma, thermal aerosol single deep inhalation, mean ± SD) was 886 ± 268 ng/mL and the half-life ([3]; venous plasma, inhaled or intranasal, Half-Life, dog venous plasma, aerosol inhalation) was 76.2 ± 17.4 min. The Tmax ([3]; venous plasma, inhaled or intranasal, dog venous plasma, aerosol inhalation) was 1 min, the bioavailability ([3]; venous plasma, inhaled, aerosol bioavailability to IV bolus, 7 mg aerosol vs IV bolus) was 82% and the bioavailability ([3]; venous plasma, inhaled, aerosol bioavailability to IV infusion, 7 mg aerosol vs 2-min IV infusion) was 109%. For the same molecule, the clearance ([3]; venous plasma, intravenous, inhaled, mean clearances, dog venous, span over the three groups) was 18.9 to 24.8 mL/min/kg, the half-life ([3]; venous plasma, intravenous, inhaled, mean half-lives, dog venous, span over the three groups) was 76.2 to 105 min and the clearance ([3]; venous plasma, iv, CL, dog venous plasma, 2-min IV infusion) was 24.8 mL/min/kg. For the same molecule, the clearance ([3]; venous plasma, iv, CL, dog venous plasma, IV bolus) was 18.9 ± 3.6 mL/min/kg, the Cmax ([3]; venous plasma, iv, dog venous plasma, 2-min IV infusion, mean ± SD) was 442 ± 270 ng/mL and the Cmax ([3]; venous plasma, iv, dog venous plasma, 5-second IV bolus, mean ± SD) was 1300 ± 1260 ng/mL. For the same molecule, the half-life ([3]; venous plasma, iv, Half-Life, dog venous plasma, 2-min IV infusion) was 105 ± 9.6 min, the half-life ([3]; venous plasma, iv, Half-Life, dog venous plasma, IV bolus) was 82.2 ± 6 min and the Tmax [3, 9] was 2.5 min. It also gave a Tmax [3, 10] of 1.1 min, a Vd [3, 9] of 3.8 L/kg and a Vd [3, 10] of 2.3 ± 0.6 L/kg. The Cmax (dog left ventricular plasma, 7 mg, 2-min IV infusion) was 1365.3 ± 396.2 ng/mL, the Cmax (dog left ventricular plasma, 7 mg, IV bolus) was 3481.8 ± 787.2 ng/mL and the Cmax (dog left ventricular plasma, 7 mg, aerosol inhalation) was 3261.5 ± 974.8 ng/mL. For the same molecule, the Cmax (dog left ventricular plasma, 7 mg, aerosol inhalation, listed as prochlorperazine) was 3261 ng/mL, the “time of maximum left ventricular concentration” value [11] was 30 s and the “time of maximum left ventricular concentration” value (dog left ventricular plasma, aerosol inhalation) was 20 s. The AUC0-10 min [12] was 32.2 ± 21.1 ng·h/mL, the AUCinf [12] was 229.9 ± 35.7 ng·h/mL and the Tlast [12] was 8.0 ± 0.0 h. For the same molecule, the Cmax (dog venous plasma, 7 mg, 2-min IV infusion, mean ± SD) was 441.8 ± 269.9 ng/mL, the AUC0-10 min [13] was 63.4 ± 15.7 ng·h/mL and the AUCinf [13] was 305.1 ± 59.3 ng·h/mL. It also gave a Tlast [13] of 8.0 ± 0.0 h, an AUC0-10 min [14] of 56.5 ± 10.6 ng·h/mL and an AUCinf [14] of 250.4 ± 58.2 ng·h/mL. It also gave a Tlast [14] of 6.0 ± 2.3 h, a Vd [14] of 2.6 ± 1.1 L/kg and a Cmax (dog venous plasma, 7 mg, thermal aerosol single deep inhalation, mean ± SD) of 886.5 ± 268.3 ng/mL. The “mean maximum concentration, left ventricular plasma relative to venous plasma” value (dog, 2-minute IV infusion) was “approximately 3 fold”, the “venous plasma concentration at time points after 8 hr (undetectable levels)” value (dog, 2-minute IV infusion) was < 2 ng/mL and the “peak concentration in left ventricular plasma relative to 2-minute IV infusion” value (dog, aerosol and IV bolus treatments) was “approximately 2.5 fold”. The “F, aerosol bioavailability to IV infusion” value (dog, based on venous AUCinf, 7 mg aerosol vs 2-min IV infusion) was 108.7±19% and 108.9 ± 19.2%, the “F, aerosol bioavailability to IV bolus” value (dog, based on venous AUCinf, 7 mg aerosol vs IV bolus) was 82.1 ± 13.1% and the “(ventricular) spike index for inhalation” value (dog, left ventricular Cmax aerosol divided by Cmax 2-min IV infusion) was 2.4.
For `Cc1nnc2n1-c1ccc(Cl)cc1C(c1ccccc1)=NC2` [alprazolam], the “body weight change between treatment sessions” value [4] was “no remarkable change”, the “adverse effects by clinical observations” value ([4]; 0.7 mg IV bolus and aerosol sessions) was “no adverse effects” and the “last time concentrations measurable (last sampling time)” value ([5]; dog left ventricle plasma, all cases) was 10 min. The “median time through which concentrations were measurable” value ([5]; dog venous plasma, IV dosing) was 240 min, the “median time through which concentrations were measurable” value ([5]; dog venous plasma, inhalation dosing) was 360 min and the “mean Cmax for left ventricle plasma relative to venous plasma” value ([5]; dog, both routes of administration) was ~7 fold. For the same molecule, the “mean Cmax after inhalation as percentage of values after intravenous dosing” value ([5]; dog, left ventricle and venous plasma) was “approximately 70%”, the “bioavailability based upon mean AUC (n=4) by each route” value ([5]; dog, left ventricle sampling) was 81.5% and the “bioavailability based upon mean AUC (n=4) by each route” value ([5]; dog, systemic plasma) was 94.9%. It also gave an AUC(0-t) ([5]; dog, inhaled or intranasal, dog venous plasma, aerosol inhalation, read-out: AUC0-240 (converted)) of 38.3 ng·h/mL, an AUC(0-t) ([5]; dog, inhaled or intranasal, dog venous plasma, aerosol inhalation, read-out: AUClast (converted)) of 43.3 ng·h/mL and an AUC(0-t) ([5]; dog, iv, dog venous plasma, IV bolus, read-out: AUC0-240 (converted)) of 42.3 ng·h/mL. For the same molecule, the AUC(0-t) ([5]; dog, iv, dog venous plasma, IV bolus, read-out: AUClast (converted)) was 45.3 ng·h/mL, the bioavailability ([5]; inhaled or intranasal, dog, based on AUC for venous plasma, n=3, read-out: F, mean bioavailability for inhalation administration) was 95.5% and the Cmax [5, 15] was 676 ± 99.5 ng/mL. It also gave a Tmax [5, 15] of 0.25 min, an AUC [5, 16] of 49.7 ng·h/mL and a Cmax ([5]; inhaled or intranasal, dog venous plasma, aerosol inhalation, mean ± SD, n=4) of 102 ± 57.2 ng/mL. It also gave a Tmax [5, 16] of 0.5 min, a half-life ([5]; inhaled or intranasal, dog venous plasma, aerosol inhalation, read-out: Half-Life) of 115 ± 12.9 min and a half-life ([5]; intravenous, inhaled, dog venous plasma, both routes, read-out: mean terminal elimination half-life) of ~110 min. The bioavailability ([5]; left ventricular plasma, inhaled or intranasal, dog, based on AUC for left ventricle plasma, three animals, read-out: mean bioavailability for inhalation administration) was 85%, the half-life ([5]; left ventricular plasma, intravenous, inhaled, dog left ventricle plasma, both routes, read-out: mean terminal elimination half-life) was ~4 min and the Cmax [5, 11] was 967 ± 303 ng/mL. It also gave a Tmax [5, 11] of 0.42 min, a Cmax ([5]; dog venous plasma, 5-second IV bolus, mean ± SD, n=4) of 147 ± 93.5 ng/mL and an AUC ([5]; dog venous plasma, IV bolus) of 52.3 ng·h/mL. It also gave a Tmax ([5]; dog venous plasma, IV bolus) of 0.75 min and a half-life ([5]; dog venous plasma, IV bolus, read-out: Half-Life) of 106 ± 22 min.
